# From US20060251717A1, “Memantine Oral Dosage Forms” (priority 2003, published 2006)
# Test: Administration of memantine in 2 mg weekly increments to a patient suffering from glaucoma, tolerance observed
# Format: in vivo
# Conditions: 2 mg tablet for one week
# Procedure: In certain cases, the initial administration of 5 mg of memantine, or the increase in the dosage by 5 mg increments, may be more than can be tolerated by the patient. […] The term adverse event refers to any undesirable side effect or toxic effect associated with memantine. In relation to embodiments of this type, it is preferable that the dose of memantine is increase by an increment of about 0.25 to about 0.5 mg each day until the maintenance dose is reached.
# (§1) To a patient suffering from glaucoma, is administered a tablet comprising 2 mg of memantine is administered for one week. The patient then receives a tablet comprising a 4 mg dose for one week. The dose is increased by 2 mg each week until a 10 mg dose is reached at the beginning of the fifth week. […] The tablet comprising 10 mg of memantine is administered daily for as long as the drug is needed.
# as §1, with “20” for “10”, “tenth” for “fifth”
smiles,measurement,setting,value
CC12CC3CC(C)(C1)CC(N)(C3)C2 [memantine],tolerance of the drug,"dose increased by 2 mg each week until 10 mg at beginning of fifth week, first four weeks of administration",improved tolerance
same,tolerance of the drug,"dose increased by 2 mg each week until 20 mg at beginning of tenth week, first nine weeks of administration",improved tolerance
